Source: article PMC4401082 (European journal of medicinal chemistry, 2014)

Assays:
[1] = biological target: T1, oCOX-1 (ovine cyclooxygenase-1) (Ovis aries, UniProt P05979); test: [[…]-14C]-arachidonic acid TLC COX activity assay with purified enzyme; type: biochemical
T1 sequence (P05979 25-600): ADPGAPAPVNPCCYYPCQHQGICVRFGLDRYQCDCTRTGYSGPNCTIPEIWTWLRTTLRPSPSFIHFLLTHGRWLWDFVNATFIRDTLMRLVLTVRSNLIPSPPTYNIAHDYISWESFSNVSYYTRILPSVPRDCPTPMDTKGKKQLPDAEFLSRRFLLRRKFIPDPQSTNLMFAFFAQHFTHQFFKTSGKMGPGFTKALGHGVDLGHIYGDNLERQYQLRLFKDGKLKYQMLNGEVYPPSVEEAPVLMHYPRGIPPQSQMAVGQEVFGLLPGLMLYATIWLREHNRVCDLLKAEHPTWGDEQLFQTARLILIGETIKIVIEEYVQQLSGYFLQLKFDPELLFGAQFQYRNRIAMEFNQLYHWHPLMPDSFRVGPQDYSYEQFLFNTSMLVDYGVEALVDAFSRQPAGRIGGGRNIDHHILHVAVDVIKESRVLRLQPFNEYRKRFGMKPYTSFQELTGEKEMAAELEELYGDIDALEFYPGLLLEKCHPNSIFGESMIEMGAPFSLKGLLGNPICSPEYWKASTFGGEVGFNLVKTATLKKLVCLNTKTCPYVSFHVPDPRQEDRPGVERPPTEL

[2] = biological target: hCOX-1 (cyclooxygenase-1) (Homo sapiens, UniProt P23219); test: [[…]-14C]-arachidonic acid metabolism in intact OVCAR-3 cells; type: cell-based
Sequence of hCOX-1 (cyclooxygenase-1) (P23219 24-599): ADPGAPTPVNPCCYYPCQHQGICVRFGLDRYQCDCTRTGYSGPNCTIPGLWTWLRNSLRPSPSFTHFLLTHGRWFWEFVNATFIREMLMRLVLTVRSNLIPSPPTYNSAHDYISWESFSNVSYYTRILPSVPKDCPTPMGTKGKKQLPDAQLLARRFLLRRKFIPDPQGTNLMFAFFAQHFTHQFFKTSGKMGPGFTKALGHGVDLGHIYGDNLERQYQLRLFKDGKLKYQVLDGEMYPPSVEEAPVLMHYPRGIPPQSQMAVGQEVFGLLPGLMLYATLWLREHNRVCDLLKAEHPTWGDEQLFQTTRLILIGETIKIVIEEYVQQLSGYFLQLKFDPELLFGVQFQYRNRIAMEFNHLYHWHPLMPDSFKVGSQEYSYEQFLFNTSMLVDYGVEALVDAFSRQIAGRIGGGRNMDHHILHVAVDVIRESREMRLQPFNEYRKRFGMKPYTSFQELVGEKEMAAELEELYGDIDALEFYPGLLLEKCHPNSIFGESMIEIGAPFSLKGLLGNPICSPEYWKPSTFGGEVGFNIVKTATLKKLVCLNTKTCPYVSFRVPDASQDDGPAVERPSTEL

IC50 [1]: 2000 nM
IC50 [2]: 1370 nM
Compound: FCc1onc(-c2ccc(Cl)o2)c1-c1ccccc1 [[19F]-P6, 3-(5-chlorofuran-2-yl)-5-(fluoromethyl)-4-phenylisoxazole]
